Laboratory results published in ChEMBL document CHEMBL1201862, “PubChem BioAssay data set” (2004).
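Step 1: Grow cells in 96-well plates. Step 2: Expose to compound for 48 hours at 5 concentrations. Step 3: Interpolate endpoints linearly; if unreached, use highest concentration. The concentration for 50% growth inhibition is given as GI50.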 The source made the active and inactive calls. Cut-off read from the data, not from the text of the source: active = GI50 up to about 1.1 µM and inactive = higher.

How the values were obtained:
Experiment in all cases: DTP human tumour cell line panel, 48 h
SF-539 = system: SF-539
DLD-1 = system: DLD-1
RXF 393 = system: RXF 393
OVCAR-3 = system: OVCAR-3
TK-10 = system: TK-10
UACC-257 = system: UACC-257
CAKI-1 = system: CAKI-1
UACC-62 = system: UACC-62
OVCAR-4 = system: OVCAR-4
NCI-H460 = system: NCI-H460
EKVX = system: EKVX
HCT-116 = system: HCT-116
HL-60 = system: HL-60
K562 = system: K562
MOLT-4 = system: MOLT-4
RPMI-8226 = system: RPMI-8226
SK-MEL-2 = system: SK-MEL-2

Row | Structure (SMILES) | GI50 (SF-539) | GI50 (DLD-1) | GI50 (RXF 393) | GI50 (OVCAR-3) | GI50 (TK-10) | GI50 (UACC-257) | GI50 (CAKI-1) | GI50 (UACC-62) | GI50 (OVCAR-4) | GI50 (NCI-H460) | GI50 (EKVX) | GI50 (HCT-116) | GI50 (HL-60) | GI50 (K562) | GI50 (MOLT-4) | GI50 (RPMI-8226) | GI50 (SK-MEL-2)
1 | N#Cc1ccccc1NC(=O)C(=O)C(C(=O)c1ccncc1)C1OC(=O)c2ccccc21 (stereo not drawn) | > 100 µM (inactive) | > 100 µM (inactive) | > 100 µM (inactive) | > 100 µM (inactive) | > 100 µM (inactive) | > 100 µM (inactive) | > 100 µM (inactive) | > 100 µM (inactive) | > 100 µM (inactive) | > 100 µM (inactive) | > 100 µM (inactive) | > 100 µM (inactive) | > 100 µM (inactive) | > 100 µM (inactive) | – | – | –
2 | CCOC(=O)/C(C#N)=C\C=C1/C=CN=C2NCCN21 | > 100 µM (inactive) | > 100 µM (inactive) | 99.5 µM (inactive) | > 100 µM (inactive) | > 100 µM (inactive) | > 100 µM (inactive) | > 100 µM (inactive) | > 100 µM (inactive) | > 100 µM (inactive) | > 100 µM (inactive) | > 100 µM (inactive) | > 100 µM (inactive) | > 100 µM (inactive) | > 100 µM (inactive) | > 100 µM (inactive) | > 100 µM (inactive) | > 100 µM (inactive)
3 | OCc1c[te]c(-c2ccccc2)c1 | 28.4 µM (inactive) | 37.2 µM (inactive) | 42.2 µM (inactive) | 15.5 µM (inactive) | > 100 µM (inactive) | 57.5 µM (inactive) | 47.4 µM (inactive) | 31.3 µM (inactive) | 32 µM (inactive) | 31 µM (inactive) | 99.8 µM (inactive) | 17.5 µM (inactive) | 12.6 µM (inactive) | 38.5 µM (inactive) | 38.8 µM (inactive) | 24 µM (inactive) | 25.8 µM (inactive)
4 | COc1cc(C2C(C(=O)Nc3ccccc3)=C(C)NC(C)=C2C(=O)Nc2ccccc2)ccc1O | 21.6 µM (inactive) | 29.1 µM (inactive) | > 100 µM (inactive) | 23 µM (inactive) | > 100 µM (inactive) | 61.9 µM (inactive) | – | – | 29.1 µM (inactive) | 43.7 µM (inactive) | 83.4 µM (inactive) | 34.5 µM (inactive) | 22.4 µM (inactive) | 30.6 µM (inactive) | 27.4 µM (inactive) | 26.4 µM (inactive) | 28.6 µM (inactive)
5 | O=C1C=CC(=O)c2cc(Sc3ccccc3)c(=O)c(Sc3ccccc3)cc21 | > 100 µM (inactive) | 56.4 µM (inactive) | 14 µM (inactive) | 50.9 µM (inactive) | 64.3 µM (inactive) | > 100 µM (inactive) | > 100 µM (inactive) | 24.8 µM (inactive) | 53.3 µM (inactive) | > 100 µM (inactive) | > 100 µM (inactive) | 32.6 µM (inactive) | 10.6 µM (inactive) | 28.1 µM (inactive) | 24 µM (inactive) | 37.3 µM (inactive) | > 100 µM (inactive)
6 | CCCCCC/C(CC(=O)CCC(=O)NCCc1ccccc1)=N\Nc1ccc([N+](=O)[O-])cc1[N+](=O)[O-] | > 100 µM (inactive) | 63.7 µM (inactive) | > 100 µM (inactive) | 51.3 µM (inactive) | > 100 µM (inactive) | 74.8 µM (inactive) | > 100 µM (inactive) | 30.5 µM (inactive) | – | > 100 µM (inactive) | 38.7 µM (inactive) | 36.7 µM (inactive) | 27.9 µM (inactive) | 38.1 µM (inactive) | 21.4 µM (inactive) | 27 µM (inactive) | > 100 µM (inactive)
7 | COC1=CC(C2c3cc4c(cc3[C@@H](Nc3ccc(F)cc3)C3COC(=O)[C@H]23)OCO4)=CC(=O)C1=O (stereo partly drawn) | 4.37 µM (inactive) | 26.2 µM (inactive) | 50.2 µM (inactive) | 27.7 µM (inactive) | 19.2 µM (inactive) | 37.6 µM (inactive) | 4.48 µM (inactive) | 5.68 µM (inactive) | 39.8 µM (inactive) | 0.608 µM (active) | 20.5 µM (inactive) | 9.89 µM (inactive) | 2.11 µM (inactive) | 10.4 µM (inactive) | 0.524 µM (active) | 10.5 µM (inactive) | –
8 | CN(C)c1ccc(-c2cc(O)c3cc4c(cc3n2)OCO4)cc1 | > 100 µM (inactive) | > 100 µM (inactive) | > 100 µM (inactive) | > 100 µM (inactive) | > 100 µM (inactive) | > 100 µM (inactive) | – | > 100 µM (inactive) | > 100 µM (inactive) | > 100 µM (inactive) | > 100 µM (inactive) | > 100 µM (inactive) | > 100 µM (inactive) | > 100 µM (inactive) | > 100 µM (inactive) | > 100 µM (inactive) | > 100 µM (inactive)
